Reference: US8030043B2, “β-galactoside-α2,3-sialyltransferase, a gene encoding thereof, and a method for producing thereof” (Japan Tobacco Inc., priority 2005, dated 2011)

How the values were obtained:
[1] = test system: FAJ-N1C0 recombinant β-galactoside-α2,3-sialyltransferase; assay: Acceptor substrate specificity of recombinant β-galactoside-α2,3-sialyltransferase (mono-, disaccharides); type: biochemical, Vibrio sp.; design: FAJ-N1C0 Sialyltransferase activity Relative activity (%): tested at 42 mM; conditions: 20° C., 14 hours; for FAJ-N1C0 Sialyltransferase activity: Table 16: 1 μmol acceptor, pH 5.0, about 2.5 mU enzyme; for FAJ-N1C0 Sialyltransferase activity Relative activity (%): Table 16: activity toward lactose set to 100
From the text: (§1) Cell homogenates prepared from E. coli cells introduced with the third clone of ISH467-N2C0, the first clone of ISH224-N1C0 and the first clone of FAJ-N1C0 were each purified by ion exchange chromatography and hydroxyapatite chromatography to give an electrophoretically single band. The thus purified β-galactoside-α2,3-sialyltransferases were used in the following experiment in order to examine the presence or absence of sialyltransferase activity toward various monosaccharides, disaccharides and trisaccharides.
(§2) A reaction solution (24 μl) was prepared to contain CMP-^14C-NeuAc-containing CMP-NeuAc as a glycosyl donor substrate ([…], final concentration in the reaction solution: […]), any of various glycosyl acceptor substrates dissolved in 20 mM cacodylate buffer (pH 5.0) (1 μmol, final concentration in the reaction solution: 42 mM), sialyltransferase (in an amount as indicated in the footnotes of the tables below) and NaCl (final concentration in the reaction solution: 500 mM), and reacted under conditions as indicated in the footnotes of the tables below. The monosaccharides used as glycosyl acceptor substrates were the following 10 types: methyl-α-D-galactopyranoside (Gal-α-OMe), methyl-(β-D-galactopyranoside (Gal-β-OMe), methyl-α-D-glucopyranoside (Glc-α-OMe), methyl-β-D-glucopyranoside (Glc-β-OMe), methyl-α-D-mannopyranoside (Man-α-OMe), methyl-β-D-mannopyranoside (Man-β-OMe), methyl-α-D-fucopyranoside (Fuc-α-OMe), methyl-β-D-fucopyranoside (Fuc-β-OMe), N-acetylgalactosamine (GalNAc), and N-acetylglucosamine ([…]). The disaccharides used were the following 5 types: lactose (Gal-β1,4-Glc), N-acetyllactosamine (Gal-β1,4-GlcNAc), methyl-β-D-galactopyranosyl-β1,3-N-acetylglucosaminide (Gal-β1,3-GlcNAc-β-OMe), methyl-α-D-galactopyranosyl-α1,3-galactopyranoside (Gal-α-1,3-Gal-α-OMe), and methyl-β-D-galactopyranosyl-β1,3-galactopyranoside (Gal-β1,3-Gal-β-OMe). The trisaccharide used was 2′-fucosyllactose (Fuc-α1,2-Galβ1,4-Glc). It should be noted that the final concentration was set to 8.4 mM for the sugar chains shown in Table 18, i.e., methyl-α-D-galactopyranosyl-α1,3-galactopyranoside (Gal-α1,3-Gal-α-OMe), methyl-β-D-galactopyranosyl-β1,3-galactopyranoside (Gal-β1,3-Gal-β-OMe) and 2′-fucosyllactose (Fuc-α1,2-Gal-β1,4-Glc).
(§3) After completion of the enzymatic reaction, 1.98 ml of 5 mM phosphate buffer (pH 6.8) was added to the reaction solution to stop the enzymatic reaction. Then, the enzymatic reaction solution was diluted with 5 mM phosphate buffer (pH 6.8) and applied in a volume of 2 ml to a AG1−×2 Resin (PO4^3− form, 0.2×2 cm) column. This column was prepared as follows: AG1-x 2 Resin (OH^− form, BIO-RAD) was suspended in 1 M phosphate buffer (pH 6.8), and after 30 minutes, the resin was washed with distilled water and then suspended in distilled water. The eluate (0 to 2 ml) from this column was measured for its radioactivity. The eluate from this column contains the unreacted glycosyl acceptor substrate and the ^14C-NeuAc (N-acetylneuraminic acid)-bound reaction product which was generated by the reaction, but unreacted CMP-14C-NeuAc is still retained on the column. Thus, the radioactivity of ^14C from each sialic acid-containing sugar chain generated as a result of the enzymatic reaction arises exclusively from the reaction product, so that the radioactivity of this fraction can be used to calculate the enzyme activity.
(§4) In the manner described above, the radioactivity of NeuAc transferred to each glycosyl acceptor substrate was measured to calculate the amount of transferred sialic acid.

[2] = test system: ISH467-N2C0 recombinant β-galactoside-α2,3-sialyltransferase; assay: Acceptor substrate specificity of recombinant β-galactoside-α2,3-sialyltransferase (mono-, di-, trisaccharides); type: biochemical, Photobacterium phosphoreum
From the text: as §1, §2, §3, §4

[3] = test system: ISH224-N1C0 recombinant β-galactoside-α2,3-sialyltransferase; assay: as above; type: biochemical, Photobacterium sp.
From the text: as §1, §2, §3, §4

[4] = test system: α2,3-sialyltransferase derived from strain JT-ISH-467; assay: Sialic acid transfer to monosaccharides and disaccharides by partially purified α2,3-sialyltransferase (CMP-14C-NeuAc donor, radioactivity of column eluate); type: biochemical, Photobacterium phosphoreum; conditions: 25° C., 4 hours; acceptor 10 μmol (200 mM); CMP-14C-NeuAc 400 nmol; sialyltransferase 0.13 mU; NaCl 500 mM
Method: A cell homogenate prepared from the strain JT-ISH-467 was partially purified by ion exchange chromatography, hydroxyapatite chromatography, and gel filtration chromatography. The thus partially purified α2,3-sialyltransferase was used in the following experiment in order to confirm the transfer of sialic acid to various monosaccharides and disaccharides.
The enzymatic reaction was carried out at 25° C. for 4 hours in a reaction solution (24 μl) prepared to contain CMP-^14C-NeuAc as a glycosyl donor substrate (400 nmol (15600 cpm), final concentration in the reaction solution: 16.6 mM), any of various glycosyl acceptor substrates (10 μmol, final concentration in the reaction solution: 200 mM), sialyltransferase (0.13 mU) and NaCl (final concentration in the reaction solution: 500 mM). The monosaccharides and disaccharides used as glycosyl acceptor substrates were the following 6 substances: methyl-α-D-galactopyranoside (Gal-α-OMe), methyl-β-D-galactopyranoside (Gal-β-OMe), N-acetylgalactosamine (GalNAc), lactose (Gal-β1,4-Glc), N-acetyllactosamine (Gal-β1,4-GlcNAc), and methyl-β-D-galactopyranosyl-β-1,3-N-acetylglucosaminide (Gal-β1,3-GlcNAc-β-OMe).
as §3, with “AG1-×2” for “AG1−×2”, “AG1-×2” for “AG1-x 2”, “CMP-^14C-NeuAc” for “CMP-14C-NeuAc”
as §4

[5] = Table 16: 1 μmol acceptor, pH 5.0, about 2.5 mU enzyme, 20° C., 14 hours
[6] = Table 16: activity toward lactose set to 100, 20° C., 14 hours
[7] = Table 17: 1 μmol acceptor, pH 5.0, 2.3 mU per reaction, 30° C., 0.5 minutes or 2 minutes
[8] = Table 17: activity toward lactose set to 100, 30° C., 0.5 minutes or 2 minutes
[9] = Table 17: 1 μmol acceptor, pH 5.0, 1.0 mU per reaction, 30° C., 0.5 minutes or 2 minutes
[10] = Table 18: 0.2 μmol acceptor (8.4 mM), pH 5.0, 23 mU per reaction, 30° C., 2 minutes
[11] = Table 18: activity toward lactose set to 100, 0.2 μmol acceptor, 30° C., 2 minutes
[12] = Table 18: 0.2 μmol acceptor (8.4 mM), pH 5.0, 1.0 mU per reaction, 30° C., 2 minutes

SMILES | FAJ-N1C0 Sialyltransferase activity [1] | FAJ-N1C0 Sialyltransferase activity Relative activity (%) [1] | ISH467-N2C0 Sialyltransferase activity [2, 5] | ISH467-N2C0 Sialyltransferase activity Relative activity (%) [2, 6] | ISH467-N2C0 Sialyltransferase activity [2, 7] | ISH467-N2C0 Sialyltransferase activity Relative activity (%) [2, 8] | ISH224-N1C0 Sialyltransferase activity [3, 5] | ISH224-N1C0 Sialyltransferase activity Relative activity (%) [3, 6] | ISH224-N1C0 Sialyltransferase activity [3, 9] | ISH224-N1C0 Sialyltransferase activity Relative activity (%) [3, 8] | Amount of transferred sialic acid [4] | ISH467-N2C0 Sialyltransferase activity [2, 10] | ISH467-N2C0 Sialyltransferase activity Relative activity (%) [2, 11] | ISH224-N1C0 Sialyltransferase activity [3, 12] | ISH224-N1C0 Sialyltransferase activity Relative activity (%) [3, 11]
CO[C@H]1O[C@H](CO)[C@@H](O)[C@H](O)[C@H]1O [Methylαglucopyranoside, methyl-α-D-glucopyranoside] | 4.7 nmol/min | 62% | 6.2 nmol/min | 79% | 1.11 nmol/min | 48% | 4.3 nmol/min | 51% | 0.70 nmol/min | 68% | – | – | – | – | –
CO[C@@H]1O[C@H](CO)[C@@H](O)[C@H](O)[C@H]1O [Methylβglucopyranoside, methyl-β-D-glucopyranoside] | 4.0 nmol/min | 52% | 3.6 nmol/min | 46% | 0.76 nmol/min | 33% | 3.7 nmol/min | 43% | 0.27 nmol/min | 26% | – | – | – | – | –
CC(=O)N[C@H]1C(O)O[C@H](CO)[C@@H](O)[C@@H]1O (some centres unmarked) [N-Acetylglucosamine, N-acetylglucosamine] | 4.2 nmol/min | 55% | 5.0 nmol/min | 63% | 0.91 nmol/min | 40% | 5.7 nmol/min | 68% | 0.51 nmol/min | 50% | – | – | – | – | –
CO[C@H]1O[C@H](C)[C@H](O)[C@H](O)[C@H]1O [Methylαfucopyranoside, methyl-α-D-fucopyranoside] | – | – | – | – | 1.13 nmol/min | 49% | – | – | 0.70 nmol/min | 68% | – | – | – | – | –
CO[C@@H]1O[C@H](CO)[C@H](O)[C@H](O)[C@H]1O [Methylβgalactopyranoside, methyl-β-D-galactopyranoside] | 8.7 nmol/min | 114% | 9.1 nmol/min | 116% | 5.77 nmol/min | 251% | 8.9 nmol/min | 105% | 3.54 nmol/min | 343% | 50.2 nmol | – | – | – | –
CO[C@@H]1O[C@H](CO)[C@H](O)[C@H](O[C@@H]2O[C@H](CO)[C@H](O)[C@H](O)[C@H]2O)[C@H]1O [methyl-β-D-galactopyranosyl-β1,3-galactopyranoside] | – | – | – | – | – | – | – | – | – | – | – | 5.17 nmol/min | 222% | 5.52 nmol/min | 331%
CO[C@H]1O[C@H](CO)[C@H](O)[C@H](O[C@H]2O[C@H](CO)[C@H](O)[C@H](O)[C@H]2O)[C@H]1O [methyl-α-D-galactopyranosyl-α1,3-galactopyranoside] | – | – | – | – | – | – | – | – | – | – | – | 7.17 nmol/min | 308% | 8.80 nmol/min | 528%
CO[C@@H]1O[C@H](CO)[C@@H](O)[C@H](O)[C@@H]1O [Methylβmannopyranoside, methyl-β-D-mannopyranoside] | – | – | – | – | 1.45 nmol/min | 63% | – | – | 1.03 nmol/min | 100% | – | – | – | – | –
CO[C@H]1O[C@H](CO)[C@@H](O)[C@H](O)[C@@H]1O [Methylαmannopyranoside, methyl-α-D-mannopyranoside] | 4.3 nmol/min | 57% | 5.5 nmol/min | 71% | 1.38 nmol/min | 60% | 4.7 nmol/min | 56% | 1.11 nmol/min | 108% | – | – | – | – | –
CO[C@@H]1O[C@H](C)[C@H](O)[C@H](O)[C@H]1O [Methylβfucopyranoside, methyl-β-D-fucopyranoside] | – | – | – | – | 0.97 nmol/min | 42% | – | – | 0.50 nmol/min | 48% | – | – | – | – | –
